Results reported in patent US9000184B2, “Cyclohexane-1,2′-naphthalene-1′,2″-imidazol compounds and their use as BACE inhibitors” (AstraZeneca AB, priority 2012, dated 2015).

Assays:
[1] = tested on: sAPPβ release, SH-SY5Y cells; assay: sAPPβ release assay; type: cell-based; details: 17 h incubation, MSD detection
Description: SH-SY5Y cells were cultured in DMEM/F-12 with Glutamax, 10% FCS and 1% non-essential amino acids and cryopreserved and stored at −140° C. at a concentration of 7.5-9.5×10^6 cells per vial. Thaw cells and seed at a conc. of around 10000 cells/well in DMEM/F-12 with Glutamax, 10% FCS and 1% non-essential amino acids to a 384-well tissue culture treated plate, […] cell susp/well. The cell plates were then incubated for 7-24 h at 37° C., 5% CO2. The cell medium was removed, followed by addition of 30 μL compound diluted in DMEM/F-12 with Glutamax, 10% FCS, 1% non-essential amino acids and 1% PeSt to a final conc. of 1% DMSO. The compounds were incubated with the cells for 17 h (overnight) at 37° C., 5% CO2. Meso Scale Discovery (MSD) plates were used for the detection of sAPPβ release. MSD sAPPβ plates were blocked in 1% BSA in Tris wash buffer (40 μL/well) for 1 h on shake at r.t. and washed 1 time in Tris wash buffer (40 μL/well). 20 μL of medium was transferred to the pre-blocked and washed MSD sAPPβ microplates, and the cell plates were further used in an ATP assay to measure cytotoxicity. The MSD plates were incubated with shaking at r.t. for 2 h and the media discarded. 10 μL detection antibody was added (1 nM) per well followed by incubation with shaking at r.t. for 2 h and then discarded. 40 μL Read Buffer was added per well and the plates were read in a SECTOR Imager.

human β-Secretase [2] = target: T1, human β-Secretase (Homo sapiens (Human), UniProt P56817); assay: TR-FRET assay; type: biochemical; details: sBACE-Fc 2.7 μg/ml, substrate 100 nM, pH 4.5, 15 minutes at RT
T1 sequence (P56817 22-460): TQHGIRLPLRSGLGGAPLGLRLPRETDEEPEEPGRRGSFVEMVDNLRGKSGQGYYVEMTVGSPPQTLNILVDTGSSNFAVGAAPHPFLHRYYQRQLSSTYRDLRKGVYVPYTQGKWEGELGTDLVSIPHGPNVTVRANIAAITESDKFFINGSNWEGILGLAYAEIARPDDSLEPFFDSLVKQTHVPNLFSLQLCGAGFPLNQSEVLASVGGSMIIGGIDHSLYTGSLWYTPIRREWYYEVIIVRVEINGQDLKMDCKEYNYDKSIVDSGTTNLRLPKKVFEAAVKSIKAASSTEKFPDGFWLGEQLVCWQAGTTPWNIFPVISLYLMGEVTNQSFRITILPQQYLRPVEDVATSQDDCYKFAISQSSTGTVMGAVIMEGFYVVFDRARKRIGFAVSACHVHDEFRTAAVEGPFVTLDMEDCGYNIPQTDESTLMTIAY
Description: The β-secretase enzyme used in the TR-FRET is prepared as follows:
(§1) The cDNA for the soluble part of the human β-Secretase (AA 1-AA 460) was cloned using the ASP2-Fc10-1-IRES-GFP-neoK mammalian expression vector. The gene was fused to the Fc domain of IgG1 (affinity tag) and stably cloned into HEK 293 cells.
(§2) The enzyme (truncated form) was diluted to 6 μg/mL (stock 1.3 mg/mL) and the TruPoint BACE1 Substrate to 200 nM (stock 120 μM) in reaction buffer (NaAcetate, chaps, triton x-100, EDTA pH4.5). Enzyme and compound in dimethylsulphoxide (final DMSO concentration 5%) was mixed and pre-incubated for 10 minutes at RT. Substrate was then added and the reaction was incubated for 15 minutes at RT. The reaction was stopped with the addition of 0.35 vol Stop solution (NaAcetate, pH 9). The fluorescence of the product was measured on a Victor II plate reader with excitation wavelengths of 340-485 nm and emission wavelengths of 590-615 nm. […] The dimethylsulphoxide control, instead of test compound, defined the 100% activity level and 0% activity was defined by wells lacking enzyme (replaced with reaction buffer) or by a saturating dose of a known inhibitor, 2-amino-6-[3-(3-methoxyphenyl)phenyl]-3,6-dimethyl-5H-pyrimidin-4-one.

human β-Secretase [3] = target: T1, human β-Secretase; assay: Diluted TR-FRET assay; type: biochemical; details: footnote a: diluted FRET assay, 50 times less enzyme, 6.5 h reaction time at r.t.; read-out: IC50 in TR-FRET assay (IC50 from the diluted FRET assay)
Description: as §1, §2
Compounds with a high affinity were further tested in a diluted TR-FRET assay, conditions as described above for the TR-FRET assay, but with 50 times less enzyme and a 6.5 h long reaction time at r.t. in the dark.

Row | Compound | IC50 [1] [nM] | IC50 (human β-Secretase [2]) [nM] | IC50 ([1]; Homo sapiens) [nM] | IC50 (human β-Secretase [3]) [nM]
1 | CO[C@H]1CC[C@]2(CCc3ccc(-c4cncc(Cl)c4)cc3C23N=C(C)C(N)=N3)CC1 (single isomer, unassigned; isomer 2) [7, isomer 2] | 19 | 333 |  | 
2 | CC1=NC2(N=C1N)c1cc(-c3cc(F)cc(F)c3)ccc1CCC21CC1 (centres unmarked) [Example 3, 7′-(3,5-Difluorophenyl)-5″-methyl-3′,4′-dihydrodispiro[cyclopropane-1,2′-naphthalene-1′,2″-imidazol]-4″-amine] |  | 130 | 118 | 
3 | CC1=NC2(N=C1N)c1cc(-c3cc(F)cc(C#N)c3)ccc1CCC21CC1 (centres unmarked) [Example 2, 3-(4″-Amino-5″-methyl-3′,4′-dihydrodispiro[cyclopropane-1,2′-naphthalene-1′,2″-imidazol]-7′-yl)-5-fluorobenzonitrile] |  | 79 | 23 | 
4 | CC1=NC2(N=C1N)c1cc(-c3cncc(Cl)c3)ccc1CCC21CC1 (centres unmarked) [Example 4, 7′-(5-Chloropyridin-3-yl)-5″-methyl-3′,4′-dihydrodispiro[cyclopropane-1,2′-naphthalene-1′,2″-imidazol]-4″-amine] |  |  | 11 | 
5 | CO[C@H]1CC[C@@]2(CCc3ccc(-c4cc(Cl)cc(C#N)c4)cc3C23N=C(C)C(N)=N3)CC1 (single isomer, unassigned; isomer 2) [10, isomer 2] | 92 | 392 |  | 
6 | CC#Cc1cncc(-c2ccc3c(c2)C2(N=C(C)C(N)=N2)[C@]2(CC3)CC[C@H](OC)CC2)c1 (single isomer, unassigned; isomer 1) [8, isomer 1] | 81 | 212 |  | 
7 | CO[C@H]1CC[C@@]2(CCc3ccc(Br)cc3C23N=C(C)C(N)=N3)CC1 (single isomer, unassigned; isomer 1) [5, isomer 1] | 78 | 411 |  | 
8 | CC1=NC2(N=C1N)c1cc(-c3cc(Cl)cc(C#N)c3)ccc1CCC21CC1 (centres unmarked) [Example 9, 3-(4″-Amino-5″-methyl-3′,4′-dihydrodispiro[cyclopropane-1,2′-naphthalene-1′,2″-imidazol]-7′-yl)-5-chlorobenzonitrile] |  |  | 16 | 15
9 | COc1cc(C#N)cc(-c2ccc3c(c2)C2(N=C(C)C(N)=N2)[C@]2(CC3)CC[C@@H](OC)CC2)c1 (single isomer, unassigned; isomer 1) [6, isomer 1] | 1 |  |  | 5
10 | CO[C@H]1CC[C@@]2(CCc3ccc(-c4cncc(Cl)c4)cc3C23N=C(C)C(N)=N3)CC1 (single isomer, unassigned; isomer 1) [7, isomer 1] | 2.5 |  |  | 14
11 | CC#Cc1cncc(-c2ccc3c(c2)C2(N=C(C)C(N)=N2)[C@]2(CC3)CC[C@@H](OC)CC2)c1 (single isomer, unassigned; isomer 2) [8, isomer 2] | 2.4 | 19 |  | 
12 | COc1cc(C#N)cc(-c2ccc3c(c2)C2(N=C(C)C(N)=N2)[C@]2(CC3)CC[C@H](OC)CC2)c1 (single isomer, unassigned; isomer 2) [6, isomer 2] | 80 | 587 |  | 
13 | CO[C@H]1CC[C@]2(CCc3ccc(Br)cc3C23N=C(C)C(N)=N3)CC1 (single isomer, unassigned; isomer 2) [5, isomer 2] |  | 8920 |  | 
14 | COC1CCC2(CCc3ccc(-c4cc(Cl)cc(C#N)c4)cc3C23N=C(C)C(N)=N3)CC1 (single isomer, unassigned; isomer 1) [10, isomer 1] | 3.1 |  |  | 5.7
15 | CO[C@H]1CC[C@]2(CCc3ccc(-c4cc(Cl)cc(C#N)c4)cc3C23N=C(C)C(N)=N3)CC1 (single isomer, unassigned; isomer 1) [11, isomer 1] | 4.5 |  |  | 3.6
16 | CO[C@H]1CC[C@@]2(CCc3ccc(-c4cc(Cl)cc(C#N)c4)cc3[C@@]23N=C(C)C(N)=N3)CC1 (single isomer, unassigned; isomer 2) [11, isomer 2] |  | > 5000 |  | 
